Measurements taken from patent US20130078298A1, “GASEOUS NITRIC OXIDE-SEQUESTERING PRODUCTS AND PROCESSES OF PREPARING SAME” (Enox Biopharma, Inc, priority 2010, published 2013).

Tests used:
E. coli [1] = test: Sterilization of E. coli-inoculated catheter sections by nitric oxide dosing (CFU count); type: cell-based, Escherichia coli; conditions: 20,000 ppm NO, 30 cc/minutes
Experimental: Six-mm diameter Folysil® silicone Foley catheters, (catalog no. AA6118; Coloplast® Corp. Minneapolis, Minn., USA) (Folysil® and Coloplast® are registered trademarks of Coloplast A/S, Humlebaek, Denmark) were aseptically cut into 2-cm sections and inoculated by immersion in 2 ml of one of 10^3 CFU/ml, 10^5CFU/ml, or 10^8 CFU/ml E. coli. inocula for 30 minutes. Inoculated catheter sections were subsequently dosed with 20,000 parts per million of nitric oxide (at a flow rate of 30 cc/minutes) during 1, 5, 15, 30, 60 or 120 minutes, using the general procedure I described hereinabove. Control catheter sections were not impregnated with nitric oxide, but were stored in sterile sealed vials.
The nitric oxide-treated and untreated catheter segments were then immersed separately in 2 ml media and then incubated for 8 hours at 37° C. Aliquots of the incubation media were plated and numbers of CFU counted. Bacterial loads were calculated as CFU per ml.
Foley catheters, (catalog no. AA6118; Coloplast® Corp. Minneapolis, Minn., USA) is aseptically cut into 2-cm sections and inoculated by immersion in 2 ml of one of 10^3 CFU/ml, 10^5 CFU/ml, or 10^8 CFU/ml E. coli. inocula for 30 minutes. Inoculated catheter sections are subsequently dosed with nitric oxide using the general procedure II described hereinabove. Control catheter sections are not impregnated with nitric oxide, but are stored in sterile sealed vials.
The nitric oxide-treated and untreated catheter segments are then immersed separately in 2 ml media and incubated for 8 hours at 37° C. Aliquots of the incubation media are plated and numbers of CFU counted. Bacterial loads are calculated as CFU per ml.

Pseudomonas aeruginosa = conditions: multiple 30 minute treatments of 160 ppm nitric oxide; cited from earlier work
Staphylococcus aureus = conditions: multiple 30 minute treatments of 160 ppm nitric oxide; cited from earlier work
E. coli [2] = conditions: multiple 30 minute treatments of 160 ppm nitric oxide; cited from earlier work
E. coli [3] = test: Biofilm sterilization by gaseous NO; type: cell-based, Escherichia coli; conditions: 20,000 ppm NO, 1 liter/minute, 5, 10, 30, 60 or 120 minutes
Experimental: (§1) A biofilm was established in each well of a 6-well plate and the time of treatment with nitric oxide gas for eradication of the biofilm was tested using the biofilm formation assay described hereinabove.
(§2) Briefly, 3 ml of LB media were placed in each well of 12 6-well plates and then each well was inoculated with 10 μl of stock bacteria (E. Coli or A. baumanii (6 plates for each bacterial type). Plates were incubated with agitation for 5 days at 37° C. to establish a biofilm in each well. The media was removed and each well washed twice with sterile saline.
(§3) Plates with established biofilms (one for each bacterial type) were treated with nitric oxide (20,000 ppm, 1 liter/minute flow rate) for 5, 10, 30, 60 or 120 minutes. Control plates were kept at room temperature, without treatment.
(§4) Three of the six wells for each plate were stained with crystal violet to confirm biofilm formation. The biofilm in the remaining 3 wells of each plate was re-suspended (with 30 seconds sonication) in 5 ml sterile saline. Aliquots of 1, 10 and 100 μl of each sample were plated in compartmentalized (3-section) petri plates.

A. baumanii = test: Biofilm sterilization by gaseous NO; type: cell-based, Acinetobacter baumanii; conditions: 20,000 ppm NO, 1 liter/minute, 5, 10, 30, 60 or 120 minutes
Experimental: as §1, §2, §3, §4

Bacterial vaginosis (BV) = conditions: following metronidazole treatment of BV; cited from earlier work

Row | SMILES | treatment time after which the catheter segments were sterilized (E. coli [1]; 10^3 bacterial stock) | treatment time after which the catheter segments were sterilized (E. coli [1]; 10^5 bacterial stock) | treatment time after which the catheter segments were sterilized (E. coli [1]; 10^8 bacterial stock) | decrease in the bacterial load (Pseudomonas aeruginosa) | decrease in the bacterial load (Staphylococcus aureus) | decrease in the bacterial load (E. coli [2]) | colonies from re-suspended established biofilm (E. coli [3]) | colonies from re-suspended established biofilm (A. baumanii) | cure rate (Bacterial vaginosis (BV))
1 | [N]=O [nitric oxide] | 1 min | 15 min | 15 min | > 5 log 10 colony forming unit per milliliter (CFU/ml) | > 5 log 10 colony forming unit per milliliter (CFU/ml) | > 5 log 10 colony forming unit per milliliter (CFU/ml) | no colonies were observed | no colonies were observed | –
2 | Cc1ncc([N+](=O)[O-])n1CCO [metronidazole] | – | – | – | – | – | – | – | – | 61%
